Measured values taken from US7348400B2 (priority 2001, dated 2008).

Experiments:
nAChR = type: binding, bovine
[1] = test system: unmyelinated primary afferent sensory nerves; details: rat, in vivo

C[N+]1(C)CCN(c2ccccc2)CC1.[I-] [DMPP, 1,1-dimethyl-4-phenylpiperazinium iodide]
displacement of 3H-epibatidine binding (nAChR): displaced

Clc1ccc(C2CC3CCC2N3)cn1 (stereo not drawn) [^3H-epibatidine, epibatidine]
Hill coefficient of 3H-epibatidine binding (nAChR): 1.08

C[N+](C)(C)CCOC(N)=O [carbachol]
displacement of 3H-epibatidine binding (nAChR): displaced

Nc1cc[nH]c(=O)n1 [cytosine]
displacement of 3H-epibatidine binding (nAChR): displaced

CN1CCCC1c1cccnc1 (stereo not drawn) [nicotine]
displacement of 3H-epibatidine binding (nAChR): displaced

ω-conotoxin GVIA
inhibition of the vascular response to LFES of sensory nerves [1]: significant inhibition
